Test [1] has as its system water immersion restrained stress induced ulcer. The test can be described thus: Water immersion restrained stress induced model. It counts as in vivo, Wister male rats. The settings on record: for Suppression / Ulcer index: water immersion stress 7 hours; for Ulcer index: control 10.3 ± 4.5; for ED50: po, rat, per os, read-out: ED50 values in rat ulcer models, water immersion restrained stress induced model; for suppression of ulcers induced by the water dipping stress (in words): rats. The procedure:
Experiments were carried out to investigate the pharmacological activity of Compound RT using ulcer models in Wister male rats. […] Cetraxate and Roxatidine, each suspended in 0.5% carboxymethyl cellulose (CMC), were administered to the rats using a per os probe, in an amount of 0.4 ml/100 g. 10 to 20 minutes after the administration, the animals were placed in an stress cage (manufactured by Natsume Manufacturing Co.) and dipped into water in a thermostat water bath at 21° C. to a depth of their processus xiphoideus to give a stress. After 7 hours, rats were taken out from the cage and sacrificed to cut out their stomach. 10 ml of a 2% formalin solution was charged into each stomach and the stomach was fixed in the solution for 10 minutes. After fixing, the stomach was opened along the greater curvature, and its mucosal surface was roughly washed with water. […] The total of such length (mm) in each animal was taken as an index for the ulcer production. The ulcer suppression rate (%) was determined based on the index applying the following formula. [(Ulcer index for the control)-(Ulcer index for the tested animal)]/(Ulcer index for the control)×100 (3) In order to more clearly identify the activity of Compound RT, both Roxatidine and Cetraxate hydrochloride were administered altogether.

For test [2], the system named is hydrochloric acid-ethanol induced ulcer. The test can be described thus: Hydrochloric acid-ethanol induced ulcer. The following applies: for Suppression / Ulcer index: 60% ethanol containing 150 mM HCl, 1 hour; for Ulcer index: control 41.0 ± 10.9; for ED50: po, rat, per os, read-out: ED50 values in rat ulcer models, hydrochloric acid-ethanol induced ulcer; for suppression of ulcers induced by hydrochloric acid-ethanol (in words): rats. It counts as in vivo, Wister male rats. The procedure:
Experiments were carried out to investigate the pharmacological activity of Compound RT using ulcer models in Wister male rats. Comparative tests were performed using commercial antiulcer drugs; Cetraxate (trade mark) and Roxatidine (trade mark), each having the following chemical structure. [drawing 11] [(Ulcer index for the control)-(Ulcer index for the tested animal)]/(Ulcer index for the control)×100 Groups of Wister male rats weighing 200-230 g, each group consisting of four rats, were fasted for 24 hours and subjected to the experiment. Cetraxate and Roxatidine, each suspended in 0.5% CMC, were administered to the rats using a per os probe, in an amount of 0.4 ml/100 g. […] After 1 hour, rats were sacrificed to cut out their stomach. 10 ml of a 2% formalin solution was charged into each stomach and the stomach was fixed in the solution for 10 minutes. After fixing, the stomach was opened along the greater curvature, and its mucosal surface was roughly washed with water. […] The total of such length (mm) in each animal was taken as an index for the ulcer production. The ulcer suppression rate (%) was determined in the same manner as above. (3) In order to more clearly identify the activity of Compound RT, both Roxatidine and Cetraxate hydrochloride were administered altogether.

The mark [3] stands for this setting: water immersion model, than Cetraxate and Roxatidine.
Where [4] appears, read: hydrochloric acid-ethanol model, than Cetraxate and Roxatidine.

SMILES strings stand for the structures.

The term ED50 denotes the dose at which the effect has come halfway, by size or by number of responders.

As for `NC[C@H]1CC[C@H](C(=O)Oc2ccc(CCC(=O)O)cc2)CC1` [Cetraxate, reference compound], the Suppression in test [1] (25 mg/kg per os) is reported as 41.7%; in test [2] (40 mg/kg per os), 12.5%. The values for the Ulcer index in test [1] (25 mg/kg per os) and in test [2] (40 mg/kg per os) were 6.0 ± 3.3 mm and 35.9 ± 14.7 mm, respectively. The figures for the ED50 in test [1] and in test [2] were 200 mg/kg and 60 mg/kg, respectively.

In test [1] (36 mg/kg per os), `NC[C@H]1CC[C@H](C(=O)OCC(=O)NCCCOc2cccc(CN3CCCCC3)c2)CC1` [Compound RT, 2-(trans-p-aminomethylcyclohexanecarboxy)-N-{3-[3-(1-piperidinomethyl)phenoxy]propyl}acetamide] came in with a Suppression of 93.2% and a Ulcer index of 0.7 ± 0.5 mm. Moreover, the “suppression of ulcers induced by the water dipping stress (in words)” value in test [1] is on record as “effectively suppress the ulcers”. Besides, in test [1] (versus combined use of the two comparative drugs), the “effect on the suppression of the acute gastroduodenal ulcer compared with combined use of the two comparative drugs (in words)” value was “remarkably greater effect”. Also, in test [1] (setting [3]), the “rate of suppression compared with Cetraxate and Roxatidine (in words)” value is reported as “higher rate of suppression”; the “ulcer index compared with Cetraxate and Roxatidine (in words)” value is “lower ulcer index”. In test [2] (58 mg/kg per os), the Suppression came out at 87.6% and the Ulcer index is 5.1 ± 5.5 mm. Besides, in test [2] (setting [4]), the “rate of suppression compared with Cetraxate and Roxatidine (in words)” value was “higher rate of suppression”; the “ulcer index compared with Cetraxate and Roxatidine (in words)” value is recorded as “lower ulcer index”. Besides, the “suppression of ulcers induced by hydrochloric acid-ethanol (in words)” value in test [2] is given as “effectively suppress the ulcers”. Besides, in test [2] (versus Roxatidine and Cetraxate hydrochloride administered altogether), the “activity against the hydrochloric acid-ethanol induced ulcer compared with combined Roxatidine and Cetraxate hydrochloride (in words)” value is “almost the same as the case where both Roxatidine and Cetraxate hydrochloride were administered altogether”.

Turning to `O=C(COC(=O)[C@H]1CC[C@H](CNC(=O)OCc2ccccc2)CC1)NCCCOc1cccc(CN2CCCCC2)c1` [Compound RTP, 2-(N-carbobenzoxy-trans-p-aminomethylhexanecarboxy)-N-{3-[3-(1-piperidinomethyl)-phenoxy]propyl}acetamide], in test [1], the “suppression of ulcers induced by the water dipping stress (in words)” value is recorded as “effectively suppress the ulcers”. Moreover, in test [2], the “suppression of ulcers induced by hydrochloric acid-ethanol (in words)” value is recorded as “effectively suppress the ulcers”.

Take `O=C(CO)NCCCOc1cccc(CN2CCCCC2)c1` [Roxatidine, N-[3-(3-piperidinomethylphenoxy)propyl]hydroxyacetamide, reference compound]: the Suppression in test [1] (25 mg/kg per os) is recorded as 75.7%; in test [2] (40 mg/kg per os) it was 64.2%. Further, the Ulcer index in test [1] (25 mg/kg per os) was determined as 2.5 ± 1.6 mm; in test [2] (40 mg/kg per os) it was 14.7 ± 9.9 mm. Also, the ED50 in test [1] was 25 mg/kg; in test [2] it was 40 mg/kg.

The values are drawn from patent US5317026A, “Acetamide derivative and application thereof” (Snow Brand Milk Products Co., Ltd., priority 1992, dated 1994).
